Assay [1] addresses T1, human cholecystokinin-2 receptor (CCK-2R) (Homo sapiens, UniProt P32239).
T1 construct: host or cells: 1321-N1 cells (plasma membranes prepared by Evotec AG Hamburg)
T1 sequence (P32239 1-447): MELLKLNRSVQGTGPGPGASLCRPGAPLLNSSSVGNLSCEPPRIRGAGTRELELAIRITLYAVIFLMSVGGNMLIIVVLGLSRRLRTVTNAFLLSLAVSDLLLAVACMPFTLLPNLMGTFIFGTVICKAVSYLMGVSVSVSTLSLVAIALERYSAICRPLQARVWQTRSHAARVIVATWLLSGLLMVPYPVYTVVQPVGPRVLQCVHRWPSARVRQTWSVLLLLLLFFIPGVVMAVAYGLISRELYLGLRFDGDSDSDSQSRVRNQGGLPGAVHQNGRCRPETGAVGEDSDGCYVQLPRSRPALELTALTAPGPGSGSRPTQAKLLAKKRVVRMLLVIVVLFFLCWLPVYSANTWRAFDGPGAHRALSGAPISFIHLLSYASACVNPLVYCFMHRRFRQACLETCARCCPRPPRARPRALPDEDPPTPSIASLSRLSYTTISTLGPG
The assay is described as follows: In vitro potency on CCK-2R, whole cell functional assay (IP1 accumulation, IP-One HTRF). The assay is classed as cell-based.

Assay [2] concerns the target T2, human cholecystokinin-1 receptor (CCK-1R) (Homo sapiens, UniProt P32238).
T2 construct: host or cells: 1321-N1 cells
T2 sequence (P32238 1-428): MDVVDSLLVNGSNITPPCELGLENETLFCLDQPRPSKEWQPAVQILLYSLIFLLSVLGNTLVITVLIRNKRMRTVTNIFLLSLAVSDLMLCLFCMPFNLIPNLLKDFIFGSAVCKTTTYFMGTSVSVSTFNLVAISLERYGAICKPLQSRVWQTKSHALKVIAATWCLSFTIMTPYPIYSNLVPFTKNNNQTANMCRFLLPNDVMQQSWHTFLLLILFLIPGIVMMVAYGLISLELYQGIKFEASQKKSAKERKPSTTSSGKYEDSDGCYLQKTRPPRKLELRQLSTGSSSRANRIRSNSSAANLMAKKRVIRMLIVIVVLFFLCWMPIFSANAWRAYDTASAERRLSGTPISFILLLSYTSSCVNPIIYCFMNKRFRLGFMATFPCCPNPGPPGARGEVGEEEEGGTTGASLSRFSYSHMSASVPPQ
Put plainly: In vitro potency on CCK-1R, whole cell functional assay (IP1 accumulation, IP-One HTRF). It is filed as cell-based.

Assay [3] deals with T2, human cholecystokinin-1 receptor (CCK-1R). The assay is described as follows: In vitro receptor binding to CCK-1R, SPA displacement of [125I]-CCK-8s from plasma membranes. Conditions: for CCK-1R binding selectivity (IC50 (CCK-2R)/IC50 (CCK-1R)): ratio of binding IC50 values, >1 = preference for CCK-1R. The method, then:
The in vitro binding affinity is a measure of the strength of attraction between a receptor and its ligand.
Displacement of radio ligand was measured as reduction in light emission from SPA beads.
The cells used in these assays were 1321-N1 cells stably expressing the CCK-1R or the CCK-2R (Perkin Elmer product numbers ES-530-A and ES-531-A, respectively see www.perkinelmer.com/Catalog/Product/ID/ES-530-A or -ES-531-A, respectively).
The cells were cultured in an incubator (95% RH (relative humidity), 5% (of standard atmospheric pressure) CO2, 37° C.) in cell culture medium (DMEM (Lonza catalogue BE-12-604F/U1), with 10% (v/v) Foetal Calf Serum (FCS, Gibco catalogue 16140-071), 1% (w/w) Sodium pyruvate (Gibco catalogue 11360-039), 500 μg/ml Geneticin® (G418) (Gibco catalogue 10131-027), 25 μg/ml Zeocin™ (Invitrogen catalogue R250-05), 1% (w/w) Pen/Strep (Gibco catalogue 15140-122)).
Plasma membranes were prepared by Evotec AG Hamburg by use of the ParrBomb (#4635, Parr Instrument Company). Cells were lysed with a lysis buffer (50 mM Tris, 2.5 mM EDTA, pH7) with added protease inhibitors (Complete Proteaseinhibitors EDTA-free (#05056489001, Roche), 1 tablet per 50 mL lysis buffer). The membrane fraction was separated by centrifugation. First, the cell lysate was centrifuged at 1000×g for 10 minutes at 4° C. The pellet was discarded and the supernatant was then centrifuged at 100.000×g for 30 minutes at 4° C. The supernatant was discarded and the pellet was re-suspended in 1 ml/5×10^8 cells ice cold membrane buffer (50 mM Tris, 320 mM Sucrose and Complete Proteaseinhibitors EDTA-free (#05056489001, Roche); pH7.4) and homogenised with dounce homogeniser. The protein concentration was determined using the Pierce™ BCA Protein Assay Kit according to kit manual, and the membrane preparation was adjust to the desired protein concentration with membrane buffer and aliquoted into pre-cooled tubes, snap-frozen in liquid nitrogen, and stored at −80° C.
CCK receptor binding assays were performed in 96-well Optiplates (Cat #6005290, PerkinElmer, Waltham, Mass., USA) in a total volume of 200 μl per well. CCK derivatives in 80% DMSO stock solutions of 800 μM were serially diluted […] in assay buffer (50 mM Tris/HCl, 4.5 mM MgCl2, […], 0.02% Tween 20, 0.25% ovalbumin, 0.1% pluronic F-68, pH 7.4) to final assay concentrations ranging from 10^−5 M (ten μM) to 10^−12 M (one pM).
Fifty μl of reference or test compounds were added to the Optiplates (using technical duplicates, i.e. two wells of each sample, one data point being the average of two wells), followed by addition of 150 μl of the mixture of SPA bead, radio ligand, and plasma membrane. The plates were sealed and incubated in the dark at +22° C. for 2 hours on a IKA MTS plate shaker (IKA-Werke D-79219 Staufen) set at 300 rpm and thereafter centrifuged at 1500 rpm for 10 minutes in a Heraeus Multifuge 3s centrifuge. SPA bead light emission was measured in a TopCount NXT (PerkinElmer) for 2 min/well after a delay of 60 min.
As a measure of compound affinity, calculations were performed in order to determine the half maximal inhibitory concentration (the IC50 value).
The data from the TopCounter were given as counts per minute (CPM). The CPM was plotted as a function of the concentration of compound. Dose-response curves were obtained, and IC50 values were calculated, by a nonlinear three-parameter logistic equation (log(agonist) vs response) with hillslope=−1, and shared top and bottom using the software programme GraphPad Prism v 6.0 (Graph Pad software, La Jolla, Calif., USA). The highest dose tested was 10^−5 M (1×10^7 pM).
The preference of a specific compound for the CCK-1 receptor, or the CCK-1R selectivity, may be defined as IC50 (CCK-2R)/IC50 (CCK-1R).
A minimum of three biological replicates was measured for each test compound on separate assay plates.

Assay [4] has as its target T1, human cholecystokinin-2 receptor (CCK-2R). Put plainly: In vitro receptor binding to CCK-2R, SPA displacement of [125I]-CCK-8s from plasma membranes.
Where [5] appears, read: ratio of functional EC50 values, >1 = preference for CCK-1R.
Where [6] appears, read: 1321-N1 cells stably expressing CCK-1R, IP1 accumulation, average of min. three replicates, read-out: EC50 (CCK-1R).

Like-named read-outs stand apart in the source and are kept apart here. Starred links: 1 amine or outer side, 2 acyl side, 3 side chain; linkers in the order of their positions; H or OH if unused. Non-standard residues stand in square brackets, D forms with d. Residues, ends and D or L forms follow the SMILES beside them. *: point of attachment. Phe(4-CH2SO3H) = N[C@@H](Cc1ccc(CS(=O)(=O)O)cc1)C(=O)O; sY = N[C@@H](Cc1ccc(OS(=O)(=O)O)cc1)C(=O)O; C18 diacid = O=C(O)CCCCCCCCCCCCCCCCC(=O)*; C16 diacid = O=C(O)CCCCCCCCCCCCCCC(=O)*; γGlu = O=C(O)[C@H](CCC(=O)[*:2])N[*:1]; βAsp = O=C(O)[C@H](CC(=O)[*:2])N[*:1]; NMeF = CN[C@@H](Cc1ccccc1)C(=O)O; dNMeD = CN[C@H](CC(=O)O)C(=O)O; Nle = CCCC[C@H](N)C(=O)O; AEEA = NCCOCCOCC(=O)O

As for `CCCC[C@H](NC(=O)[C@H](Cc1c[nH]c2ccccc12)NC(=O)CNC(=O)[C@H](CC(C)C)NC(=O)[C@H](Cc1ccc(CS(=O)(=O)O)cc1)NC(=O)[C@H](CC(=O)O)NC(=O)COCCOCCNC(=O)COCCOCCNC(=O)CC[C@H](NC(=O)CCCCCCCCCCCCCCC(=O)O)C(=O)O)C(=O)N(C)[C@H](CC(=O)O)C(=O)N(C)[C@@H](Cc1ccccc1)C(N)=O` [Example 6, 2-[2-[2-[[2-[2-[2-[[(4S)-4-Carboxy-4-(15-carboxypentadecanoylamino)butanoyl]amino]ethoxy]ethoxy]acetyl]amino]ethoxy]ethoxy]acetyl-Asp-Phe(4-sulfomethyl)-Leu-Gly-Trp-Nle-DMeAsp-MePhe-amide] ({C16 diacid-γGlu-AEEA-AEEA}-D[Phe(4-CH2SO3H)]LGW[Nle][dNMeD][NMeF]-NH2), the EC50 in assay [1] is greater than 1000 nM; in assay [2], 0.2 nM. In addition, the results for the IC50 in assay [3] and in assay [4] were 0.2 nM and greater than 10000 nM, respectively.
`CC(C)C[C@H](NC(=O)[C@H](Cc1ccc(OS(=O)(=O)O)cc1)NC(=O)[C@H](CC(=O)O)NC(=O)COCCOCCNC(=O)COCCOCCNC(=O)CC[C@H](NC(=O)CCCCCCCCCCCCCCCCC(=O)O)C(=O)O)C(=O)NCC(=O)N[C@@H](Cc1c[nH]c2ccccc12)C(=O)N[C@H](C(=O)N(C)[C@H](CC(=O)O)C(=O)N(C)[C@@H](Cc1ccccc1)C(N)=O)C(C)C` [Example 14, 2-[2-[2-[[2-[2-[2-[[(4S)-4-Carboxy-4-(17-carboxyheptadecanoylamino)butanoyl]amino]ethoxy]ethoxy]acetyl]amino]ethoxy]ethoxy]acetyl-Asp-sTyr-Leu-Gly-Trp-Val-DMeAsp-MePhe-amide] ({C18 diacid-γGlu-AEEA-AEEA}-D[sY]LGWV[dNMeD][NMeF]-NH2) yielded an EC50 in assay [1] of 730 nM. Moreover, in assay [2], the “CCK-1R selectivity (EC50 (CCK-2R)/EC50 (CCK-1R))” value (“CCK-1R selectivity” for short) amounted to 5100 and the EC50 came out at 0.14 nM. In addition, in assay [3], the IC50 was 0.31 nM and the “CCK-1R binding selectivity (IC50 (CCK-2R)/IC50 (CCK-1R))” value (shortened to “CCK-1R binding selectivity”) came to 21000. The same compound came in with an IC50 in assay [4] of 6400 nM.
For the compound `CCCC[C@H](NC(=O)[C@H](Cc1c[nH]c2ccccc12)NC(=O)CNC(=O)[C@H](Cc1ccccc1)NC(=O)[C@H](Cc1ccc(OS(=O)(=O)O)cc1)NC(=O)[C@H](CC(=O)O)NC(=O)COCCOCCNC(=O)COCCOCCNC(=O)CC[C@H](NC(=O)CCCCCCCCCCCCCCCCC(=O)O)C(=O)O)C(=O)N(C)[C@H](CC(=O)O)C(=O)N(C)[C@@H](Cc1ccccc1)C(N)=O` [Example 44, 2-[2-[2-[[2-[2-[2-[[(4S)-4-Carboxy-4-(17-carboxyheptadecanoylamino)butanoyl]amino]ethoxy]ethoxy]acetyl]amino]ethoxy]ethoxy]acetyl-Asp-sTyr-Phe-Gly-Trp-Nle-DMeAsp-MePhe-amide] ({C18 diacid-γGlu-AEEA-AEEA}-D[sY]FGW[Nle][dNMeD][NMeF]-NH2), in assay [2] (setting [5]), the “CCK-1R selectivity” value was 960. For the same compound, the “CCK-1R binding selectivity” value in assay [3] was found to be 87000.
`CCCC[C@H](NC(=O)[C@H](Cc1c[nH]c2ccccc12)NC(=O)CNC(=O)[C@H](CO)NC(=O)[C@H](Cc1ccc(OS(=O)(=O)O)cc1)NC(=O)[C@H](CC(=O)O)NC(=O)COCCOCCNC(=O)COCCOCCNC(=O)CC[C@H](NC(=O)CCCCCCCCCCCCCCCCC(=O)O)C(=O)O)C(=O)N(C)[C@H](CC(=O)O)C(=O)N(C)[C@@H](Cc1ccccc1)C(N)=O` [Example 45, 2-[2-[2-[[2-[2-[2-[[(4S)-4-Carboxy-4-(17-carboxyheptadecanoylamino)butanoyl]amino]ethoxy]ethoxy]acetyl]amino]ethoxy]ethoxy]acetyl-Asp-sTyr-Ser-Gly-Trp-Nle-DMeAsp-MePhe-amide] ({C18 diacid-γGlu-AEEA-AEEA}-D[sY]SGW[Nle][dNMeD][NMeF]-NH2): the concentration for a half-maximal effect (EC50) in assay [2] (setting [6]) came to 0.31 nM. For the same compound, the “CCK-1R selectivity” value in assay [2] (setting [5]) is 3000. Also, in assay [3], the “CCK-1R binding selectivity” value is listed as 82000.
The like results for `CCCC[C@H](NC(=O)[C@H](Cc1c[nH]c2ccccc12)NC(=O)CNC(=O)[C@H](C)NC(=O)[C@H](Cc1ccc(OS(=O)(=O)O)cc1)NC(=O)[C@H](CC(=O)O)NC(=O)COCCOCCNC(=O)COCCOCCNC(=O)CC[C@H](NC(=O)CCCCCCCCCCCCCCCCC(=O)O)C(=O)O)C(=O)N(C)[C@H](CC(=O)O)C(=O)N(C)[C@@H](Cc1ccccc1)C(N)=O` [Example 46, 2-[2-[2-[[2-[2-[2-[[(4S)-4-Carboxy-4-(17-carboxyheptadecanoylamino)butanoyl]amino]ethoxy]ethoxy]acetyl]amino]ethoxy]ethoxy]acetyl-Asp-sTyr-Ala-Gly-Trp-Nle-DMeAsp-MePhe-amide] ({C18 diacid-γGlu-AEEA-AEEA}-D[sY]AGW[Nle][dNMeD][NMeF]-NH2) were, in that order, 0.22 nM, 440 and 4100.
Regarding `CCCC[C@H](NC(=O)[C@H](Cc1ccc(CS(=O)(=O)O)cc1)NC(=O)C[C@H](N)C(=O)O)C(=O)NCC(=O)N[C@@H](Cc1c[nH]c2ccccc12)C(=O)N[C@@H](CCCC)C(=O)N(C)[C@H](CC(=O)O)C(=O)N(C)[C@@H](Cc1ccccc1)C(N)=O` [Example 75, bAsp-Phe(4-sulfomethyl)-Nle-Gly-Trp-Nle-DMeAsp-MePhe-amide] (βAsp-[Phe(4-CH2SO3H)][Nle]GW[Nle][dNMeD][NMeF]-NH2), the EC50 was greater than 1000 nM in assay [1] (1321-N1 cells stably expressing CCK-2R, IP1 accumulation, highest dose tested 1×10^6 pM, read-out: EC50 (CCK-2R)) and 0.19 nM in assay [2] (setting [6]). In assay [3] (displacement of [125I]-CCK-8s, plasma membranes of 1321-N1 cells expressing CCK-1R, read-out: IC50 (CCK-1R)), the IC50 was determined as 0.049 nM. The “CCK-1R binding selectivity” value in assay [3] was found to be 59000.

(Values after patent publication US20170008928A1, “NOVEL PEPTIDES AND PEPTIDE DERIVATIVES AND USES THEREOF” (Novo Nordisk A/S, priority 2015, published 2017).)
